According to the NIST ThermoML archive (doi:10.1016/j.fluid.2008.02.005):

Tests used:
[1] = 101.33 kPa, Liquid
[2] = xn = mol fraction of the nth substance listed; conditions: 101 kPa, Liquid

CCCCCCOCCOCCO [2-(2-hexyloxyethoxy)ethanol]
[1]
Conditions | mass density [kg/m3]
288.15 K | 924.348
298.15 K | 915.522
308.15 K | 906.642

CCCCCCOCCOCCO [2-(2-hexyloxyethoxy)ethanol] + CCCCCCCO
mass density [kg/m3], [2]
Conditions | 288.15 K | 298.15 K | 308.15 K
x1 = 0.1109 | 840.489 | 833.182 | 825.922
x1 = 0.1592 | 846.447 | 839.091 | 831.645
x1 = 0.1986 | 851.154 | 843.756 | 836.178
x1 = 0.258 | 857.994 | 850.491 | 842.797
x1 = 0.3094 | 863.644 | 856.08 | 848.254
x1 = 0.3515 | 868.149 | 860.468 | 852.588
x1 = 0.3927 | 872.418 | 864.636 | 856.716
x1 = 0.4463 | 877.834 | 869.912 | 861.89
x1 = 0.5084 | 883.872 | 875.796 | 867.692
x1 = 0.5574 | 888.492 | 880.349 | 872.159
x1 = 0.6167 | 893.921 | 885.645 | 877.389
x1 = 0.6511 | 896.97 | 888.674 | 880.331
x1 = 0.7101 | 902.042 | 893.703 | 885.279
x1 = 0.7491 | 905.269 | 896.923 | 888.446
x1 = 0.8085 | 910.029 | 901.658 | 893.122
x1 = 0.8543 | 913.588 | 905.198 | 896.613
x1 = 0.9087 | 917.663 | 909.197 | 900.531
x1 = 0.9487 | 920.583 | 912.028 | 903.307

CCCCCCOCCOCCO [2-(2-hexyloxyethoxy)ethanol] + CCCCCO
mass density [kg/m3], [2]
Conditions | 288.15 K | 298.15 K | 308.15 K
x1 = 0.1112 | 837.545 | 830.059 | 822.319
x1 = 0.1587 | 846.35 | 838.122 | 830.389
x1 = 0.2096 | 855.128 | 846.145 | 838.566
x1 = 0.2584 | 862.625 | 853.171 | 845.659
x1 = 0.3012 | 868.44 | 858.72 | 851.35
x1 = 0.3558 | 874.88 | 865.166 | 857.77
x1 = 0.4022 | 879.672 | 870.098 | 862.642
x1 = 0.4506 | 884.17 | 874.849 | 867.245
x1 = 0.5069 | 889.049 | 880.057 | 872.125
x1 = 0.541 | 891.897 | 883.079 | 874.951
x1 = 0.5971 | 896.445 | 887.853 | 879.382
x1 = 0.6456 | 900.337 | 891.848 | 883.098
x1 = 0.6998 | 904.59 | 896.131 | 887.198
x1 = 0.747 | 908.177 | 899.702 | 890.721
x1 = 0.8052 | 912.354 | 903.888 | 894.96
x1 = 0.8501 | 915.348 | 906.892 | 898.056
x1 = 0.9008 | 918.511 | 910.007 | 901.375
x1 = 0.9459 | 921.161 | 912.609 | 903.991
